From patent publication US7629150B2, “Transformed cell harboring DNA or RNA encoding sugar chain synthesizing agent having β1,3-N-acetylglucosaminyltransferase activity” (Kyowa Hakko Kirin Co., Ltd., priority 2000, dated 2009) come the findings set out here.

In one assay the target is T1, G6 polypeptide (Homo sapiens, UniProt Q9BYG0).
T1 construct: In order to obtain a DNA encoding the full-length G6 polypeptide, PCR was carried out; expressed in transfected cells; Triton X-100 cell extract
T1 sequence (Q9BYG0 1-378): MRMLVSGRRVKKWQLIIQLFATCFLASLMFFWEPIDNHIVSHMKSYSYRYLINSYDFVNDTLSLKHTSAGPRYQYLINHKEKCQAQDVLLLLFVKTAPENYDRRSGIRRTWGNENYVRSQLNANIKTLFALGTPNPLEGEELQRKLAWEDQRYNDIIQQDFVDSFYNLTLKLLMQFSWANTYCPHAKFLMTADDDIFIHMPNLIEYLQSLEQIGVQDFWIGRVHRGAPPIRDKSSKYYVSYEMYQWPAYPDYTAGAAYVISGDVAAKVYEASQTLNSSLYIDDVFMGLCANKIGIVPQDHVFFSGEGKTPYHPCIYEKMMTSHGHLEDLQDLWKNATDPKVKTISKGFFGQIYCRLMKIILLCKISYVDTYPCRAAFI
Kind of assay: β1,3-N-acetylglucosaminyltransferase activity of cell extract of Namalwa cells transfected with pAMo-G6, glycolipid substrates. In kind it is biochemical. The following applies: for conversion efficiency into the product: 250 μmol/l glycolipid, 37° C., 16 hours. How it is done:
β1,3-N-Acetylglucosaminyltransferase activity of G6 polypeptide was measured by using glycolipids as substrates according to known methods [FEBS, 462, 289 (1999), J. Biol. Chem., 269, 14730-14737 (1994), J. Biol. Chem., 267, 23507 (1992), J. Biol. Chem., 267, 2994 (1992)]. Specifically, the reaction was carried out at 37° C. for 16 hours in 20 μl of reaction solution [150 mmol/l sodium cacodylate (pH 7.2), 10 mmol/l UDP-GlcNAc (manufactured by SIGMA), 480 μmol/l UDP—[^14C]GlcNAc (manufactured by Amersham), 0.4% Triton CF-54, 10 mmol/l MnCl2, 250 μmol/l glycolipid, the cell extract prepared in the above (1) (20 μg as protein)]. As glycolipids, lactosylceramide (manufactured by SIGMA) and paragloboside (obtained from Yasunori Kushi at Tokyo Medical and Dental University) were used. After completion of the reaction, 200 μl of 0.1 mol/l KCl was added and lightly centrifuged to obtain the supernatant. The supernatant was passed through Sep-Pak plus C18 Cartridge (Waters), which had been washed once with 10 ml of methanol and equilibrated twice with 10 ml of 0.1 mol/l KCl, to adsorb the glycolipid in the supernatant onto the cartridge. After washing the cartridge twice with 10 ml of pure water for HPLC, the adsorbed glycolipid was eluted with 5 ml of methanol. After concentrating the eluate to about 10 μl by using a vacuum dryer, the concentrated solution was spotted on a TLC plate (HPTLC plate Silica gel 60: manufactured by MERCK) and developed using a developing solvent comprising a composition of chloroform:methanol:water (containing 0.2% CaCl2)=65:35:8. After the development was carried out to a position 5 mm from the upper end of the TLC plate, the plate was dried and then the radioactivity incorporated into the glycolipid was measured using Bio Image Analyzer BAS 2000 (manufactured by Fuji Photo Film).

The target in assay [1] is T2, G6sec2 (Homo sapiens, UniProt Q9BYG0).
T2 construct: made in house; host or cells: Sf21 insect cells infected with pVL1393-F2G6sec2-derived recombinant baculovirus
T2 sequence (Q9BYG0 39-378): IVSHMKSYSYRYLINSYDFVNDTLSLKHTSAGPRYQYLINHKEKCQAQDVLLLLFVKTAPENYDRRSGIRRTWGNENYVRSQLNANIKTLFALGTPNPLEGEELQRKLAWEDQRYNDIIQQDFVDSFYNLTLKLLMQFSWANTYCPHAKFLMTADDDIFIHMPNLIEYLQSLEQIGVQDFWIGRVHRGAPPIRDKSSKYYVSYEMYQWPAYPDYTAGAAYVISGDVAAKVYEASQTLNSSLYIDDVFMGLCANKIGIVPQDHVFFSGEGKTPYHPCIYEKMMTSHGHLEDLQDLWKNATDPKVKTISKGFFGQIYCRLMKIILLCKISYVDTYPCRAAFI
Description: β1,3-N-acetylglucosaminyltransferase activity using glycolipids as substrates (purified enzyme). In kind it is biochemical. The following applies: for conversion efficiency / β1,3-N-acetylglucosaminyltransferase activity for the glycolipid: glycolipid substrate; for conversion efficiency: purified G6sec2 10 μl, 37° C., 16 hours. How it is done:
Using glycolipids as the substrate, β1,3-N-acetylglucosaminyltransferase activity of the G6 polypeptide was measured according to known methods [FEBS, 462, 289 (1999), J. Biol. Chem., 269, 14730-14737 (1994), J. Biol. Chem., 267, 23507 (1992), J. Biol. Chem., 267, 2994 (1992)]. Specifically, the reaction was carried out at 37° C. for 16 hours in 20 μl of a reaction solution [150 mmol/l sodium cacodylate (pH 7.2), 10 mmol/l UDP-GlcNAc (manufactured by SIGMA), 480 μmol/l UDP—[^14C]GlcNAc (manufactured by Amersham), 0.4% Triton CF-54, 10 mmol/l MnCl2, […] glycolipid, purified enzyme (G6sec2)]. As the purified enzyme (G6sec2), 10 μl of the enzyme obtained in the above (2) was used. As glycolipids, lactosylceramide, paragloboside, galactosylceramide (Type I) and galactosylceramide (Type II) were used. Paragloboside was obtained from Yasunori Kushi at Tokyo Medical and Dental University. Other glycolipids were purchased from SIGMA. After completion of the reaction, 200 μl of 0.1 mol/l KCl was added and lightly centrifuged to obtain the supernatant. The supernatant was passed through Sep-Pak plus C18 Cartridge (manufactured by Waters) which had been washed once with 10 ml of methanol and equilibrated by washing twice with 10 ml of 0.1 mol/l KCl to adsorb the glycolipid in the supernatant onto the cartridge. After washing the cartridge twice with 10 ml of pure water for HPLC, the adsorbed glycolipid was eluted with 5 ml of methanol. After concentrating the eluate to about 10 μl using a vacuum dryer, the concentrated solution was plotted on a TLC plate (HPTLC plate Silica gel 60: manufactured by MERCK) and developed using a developing solvent comprising a composition of chloroform:methanol:water (containing 0.2% CaCl2)=65:35:8. After the development was carried out to a position 5 mm from the upper end of the TLC plate, the plate was dried and then the radioactivity incorporated into the glycolipid was measured using Bio Image Analyzer BAS 2000 (manufactured by Fuji Photo Film).

Assay [2] has as its system pCXN2-G6-transfected HCT-15 cell. Description: Sugar chain synthesis inhibitors: FACS analysis with OSK28 of poly-N-acetyllactosamine sugar chains. Format: cell-based, human. The conditions noted are these: cultured for 5 days. Here is the method: The HCT-15 cells transfected with pCXN2-G6 or pCXN2 prepared in the above (2) (each 5×10^6 cells) were washed by using 3 ml of a phosphate buffer PBS (8 g/l NaCl, 0.2 g/l KCl, 1.15 g/l Na2HPO4 (anhydrous) and 0.2 g/l KH2PO4).
The cells (about 1×10^6 cells) described above were put into a microtube (1.5 ml, manufactured by Eppendorf) and the cells were collected by centrifugation (550×g, 7 minutes).
The cells were washed with 0.9 ml of 0.1% sodium azide-containing PBS (A-PBS: 8 g/l NaCl, 0.2 g/l KCl, 1.15 g/l Na2HPO4 (anhydrous), 0.2 g/l KH2PO4 and 0.1% sodium azide), and then the washed cells were suspended in 100 μl of an antibody (OSK28) capable of recognizing a poly-N-acetyllactosamine sugar chain diluted with A-PBS to give a concentration of 10 μg/ml (20 times dilution of the following purified antibody) and allowed to react at 4° C. for 30 minutes in the dark.
After the reaction, the cells are washed twice with 3 ml of A-PBS, suspended in 100 μl of an FITC-labeled anti-human IgM antibody [manufactured by Medical & Biological Laboratories (MBL)] diluted to 10 μg/ml, and then allowed to react at 4° C. for 1 hour. After the reaction, the cells were washed twice with 3 ml of A-PBS, suspended in 200 μl of PBS containing 0.5% p-formaldehyde and then immobilized. The cells were analyzed by using FACS (Epics Elite Flow Cytometer). […]

Assay [3] addresses T2, G6sec2. Kind of assay: β1,3-N-acetylglucosaminyltransferase activity using unlabeled oligosaccharides as substrates (HPAE/PAD). Format: biochemical. Here is the method: The glycosyltransferase reaction was carried out as follows. The reaction was carried out at 37° C. for 16 hours in 40 μl of an assay solution [50 mmol/l MOPS (pH 7.5), 5 mmol/l UDP-GlcNAc (manufactured by SIGMA), 5 mmol/l MnCl2, 10 mmol/l sugar chain substrate, a purified enzyme solution (G6sec2)]. Next, the mixture was treated at 100° C. for 5 minutes and then centrifuged at 10,000×g for 20 minutes to obtain a supernatant, and a part thereof was analyzed using HPAE/PAD ([…]; manufactured by DIONEX). The method was specifically carried out according to a conventional method [Anal. Biochem., 189, 151-162 (1990), J. Biol. Chem., 273, 433-440 (1998)].
As a purified enzyme (G6sec2), […] of the enzyme obtained in the above (2) was used. As substrates, unlabeled oligosaccharides [lactose (Galβ1-4Glc) and LNnT] were used.
After the reaction on each substrate using an assay solution containing UDP-GlcNAc (saccharide donor) and an assay solution containing no donor, analysis was carried out using HPAE/PAD and peaks appeared only in the assay solution containing UDP-GlcNAc were defined as products. The product was identified using coincidence of its elution time with that of standard sugar chain as the index. As standard sugar chains, GlcNAcβ1-3Galβ1,4Glc and GlcNAcβ1-3Galβ1,4GlcNAcβ1-3Galβ1-4Glc were used.

With paragloboside, the “conversion efficiency into the product” value at G6 polypeptide worked out at 0.126%. Also, the “activity relative to lactosylceramide as substrate defined as 100%” value at G6 polypeptide (glycolipid substrates) is recorded as 96%; on G6sec2 [1] (glycolipid substrates, purified G6sec2) it was 468%. This compound also registered a conversion efficiency on G6sec2 [1] of 25.2%. Turning to `CC(=O)N[C@H]1[C@@H](OCc2ccccc2)O[C@H](CO)[C@H](O)[C@@H]1O` [benzyl-α-GalNAc], in assay [2] (4 mmol/l), the “reactivity to OSK28 antibody in comparison with absence of inhibitor” value was “sharply reduced”. Take lactosylceramide: the “conversion efficiency into the product” value on G6 polypeptide worked out at 0.125%. The same compound yielded a conversion efficiency on G6sec2 [1] of 5.39%.

Take `O[C@H]1[C@H]2[C@H](O)CCCN2C[C@H]1O` [swainsonine]: the “reactivity to OSK28 antibody” value in assay [2] (10 μg/ml) was “reduced”.

For the compound `OC[C@H]1O[C@@H](O[C@H]2[C@H](O)[C@@H](O)C(O)O[C@@H]2CO)[C@H](O)[C@@H](O)[C@H]1O` (stereo partly drawn) [lactose], the “conversion efficiency into the product” value on G6sec2 [3] (unlabeled oligosaccharide 10 mmol/l, 37° C., 16 hours) is reported as 0.30%. For the same compound, at G6sec2 [3] (unlabeled oligosaccharides), the “relative activity, LNnT as substrate defined as 100%” value was determined as 62.5%.

As to galactosylceramide (Type II), the “β1,3-N-acetylglucosaminyltransferase activity for the glycolipid” value on G6sec2 [1] (purified G6sec2) is recorded as “did not show activity”.

Turning to galactosylceramide (Type I), the “β1,3-N-acetylglucosaminyltransferase activity for the glycolipid” value at G6sec2 [1] (purified G6sec2) is “did not show activity”.
